{"source": "patent US5677148A", "about": "(priority 1995, dated 1997)", "system": "A431 cells", "assay": "Sensitivity of DAB-EGF chimeric toxin cytotoxicity to chloroquine ([3H]leucine incorporation)", "conditions": "for activity at 10 µM: Homo sapiens; for Percent of Control Incorporation: 20-hour incubation", "note": "Like-named read-outs stand apart in the source and are kept apart here.", "experimental": "To determine if the cytotoxicity of DAB486 EGF and DAB389 EGF is also dependent upon the same pathway, A431 cells were plated in sextuplicate wells of 96 well plates containing DAB486 EGF, DAB389 EGF or DMEM+10% FCS in the absence or presence of chloroquine (10^-5 M) (Sigma). […] Following a 20-hour incubation at 37° C., the cells were labeled with [^3 H] leucine, trypsinized, harvested onto glass fiber filter mats and counted."}
{"compound": "CCN(CC)CCCC(C)Nc1ccnc2cc(Cl)ccc12", "note": "(stereo not shown) [Chloroquine]", "values": [{"measurement": "activity at 10 µM", "setting": "A-431, read-out: Percent of Control Incorporation, chloroquine 10^-5 M, DAB389 EGF concentration 0, 20-hour incubation at 37° C., [3H]leucine, mean of three experiments", "result": 73, "unit": "%"}, {"measurement": "activity at 10 µM", "setting": "A-431, read-out: Percent of Control Incorporation, chloroquine 10^-5 M, DAB486 EGF concentration 0, 20-hour incubation at 37° C., [3H]leucine, mean of three experiments", "result": 86, "unit": "%"}, {"measurement": "Percent of Control Incorporation", "setting": "chloroquine 10^-5 M with DAB389 EGF 10^-11 M, [3H]leucine (no addition: 4)", "result": 61, "unit": "%"}, {"measurement": "Percent of Control Incorporation", "setting": "chloroquine 10^-5 M with DAB389 EGF 10^-12 M, [3H]leucine (no addition: 57)", "result": 100, "unit": "%"}, {"measurement": "Percent of Control Incorporation", "setting": "chloroquine 10^-5 M with DAB486 EGF 10^-8 M, [3H]leucine (no addition: 5)", "result": 60, "unit": "%"}, {"measurement": "Percent of Control Incorporation", "setting": "chloroquine 10^-5 M with DAB486 EGF 10^-9 M, [3H]leucine (no addition: 25)", "result": 96, "unit": "%"}, {"measurement": "Effect on the cytotoxicity of DT-EGF chimeric toxins", "setting": "chloroquine 10^-5 M, A431 cells, DAB486 EGF or DAB389 EGF", "result": "blocks the cytotoxicity"}]}
